Measurements: ChEMBL document CHEMBL5143519, “Exploring disordered loops in DprE1 provides a functional site to combat drug-resistance in Mycobacterium strains” (Eur J Med Chem, 2022)
Values after ≈ are worked out from the molar mass of the structure shown. Active and inactive are the calls of the source. No cut-off for these calls is given here.

Legend:
[1] = system: Mycobacterium tuberculosis; test: Antimycobacterial activity against Mycobacterium tuberculosis H37Rv assessed as inhibition of bacterial growth incubated for 7 days by microplate alamar blue assay; format: functional; settings: 168 h, time 7 day
[2] = system: Mycolicibacterium smegmatis; test: Antimycobacterial activity against Mycobacterium smegmatis mc2155 assessed as inhibition of bacterial growth incubated for 7 days by microplate alamar blue assay; format: functional; settings: mc2155, 168 h, time 7 day
[3] = system: Mycobacterium tuberculosis; test: Antimycobacterial activity against Mycobacterium tuberculosis H37Rv assessed as reduction in bacterial colony forming units at 20 times MIC concentration measured after 21 days by time kill assay; format: functional; settings: time 21 day
[4] = system: Mycobacterium tuberculosis; test: Antimycobacterial activity against Mycobacterium tuberculosis H37Rv infected in mouse macrophage J774A.1 cell assessed as reduction in bacterial colony forming units incubated for 21 days; format: functional; settings: time 21 day
[5] = target: T1, Decaprenylphosphoryl-beta-D-ribose oxidase (Mycobacterium tuberculosis (strain ATCC 25618 / H37Rv), UniProt P9WJF1); test: Inhibition of Mycobacterium tuberculosis wild type DprE1 expressed in Escherichia coli BL21 DE3 assessed as formation of resorufin using FPR as substrate incubated for 10 mins by Amplex Red dye microplate assay
T1 sequence (P9WJF1 whole entry): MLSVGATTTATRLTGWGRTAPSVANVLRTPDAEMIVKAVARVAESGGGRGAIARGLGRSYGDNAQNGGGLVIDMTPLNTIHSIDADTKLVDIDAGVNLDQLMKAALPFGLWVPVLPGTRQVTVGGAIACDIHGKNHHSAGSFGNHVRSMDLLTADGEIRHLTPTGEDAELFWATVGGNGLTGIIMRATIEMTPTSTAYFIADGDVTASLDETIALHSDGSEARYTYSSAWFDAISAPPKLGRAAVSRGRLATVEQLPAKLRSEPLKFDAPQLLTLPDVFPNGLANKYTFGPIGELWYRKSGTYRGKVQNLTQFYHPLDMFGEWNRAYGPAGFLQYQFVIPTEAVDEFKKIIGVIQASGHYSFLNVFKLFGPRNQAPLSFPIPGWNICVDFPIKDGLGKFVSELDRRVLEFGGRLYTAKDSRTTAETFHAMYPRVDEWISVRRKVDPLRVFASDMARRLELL

[6] = system: Mycolicibacterium smegmatis; test: Antimycobacterial activity against Mycobacterium smegmatis wild type DprE1 assessed as inhibition of bacterial growth incubated for 7 days by microplate alamar blue assay; format: functional; settings: 168 h, time 7 day
[7] = system: Mycobacterium tuberculosis; test: Antimycobacterial activity against Mycobacterium tuberculosis H37Rv assessed as reduction in bacterial colony forming units at 20 times MIC concentration measured after 7 days by time kill assay; format: functional, organism-based; settings: time 7.0 day

Structure (SMILES)	MIC [1] [µM]	MIC [2] [µM]	Activity [3] [log10CFU/ml]	Activity [4] [log10CFU]	IC50 [5] [µM]	MIC [6] [µM]	Activity [7]
CO[C@H]1/C=C/O[C@@]2(C)Oc3c(C)c(O)c4c(O)c(c(/C=N/N5CCN(C)CC5)c(O)c4c3C2=O)NC(=O)/C(C)=C\C=C\[C@H](C)[C@H](O)[C@@H](C)[C@@H](O)[C@@H](C)[C@H](OC(C)=O)[C@@H]1C [RIFAMPIN]	0.11 (≈ 0.0905 µg/mL)	0.35 (≈ 0.288 µg/mL)	3	1.1	–	–	–
O=C(NC(=O)c1ccsc1NC(=O)c1nc2ccccc2s1)OC1CCC1	> 250	–	–	–	18.6	–	–
N#Cc1ccc(C(=O)Nc2sccc2C(=O)NC(=O)OCC2CC2)cc1	> 250	–	–	–	18.9	–	–
O=C(NC(=O)c1ccsc1NC(=O)c1nc2ccccc2s1)OCC1CCC1	3.01 (≈ 1.25 µg/mL)	24.1 (≈ 9.99 µg/mL)	–	0.9	0.098	–	–
CCOC(=O)NC(=O)c1ccsc1NC(=O)c1ccc(C#N)cc1	> 300	–	–	–	> 64	–	–
O=C(NC(=O)c1ccsc1NC(=O)c1nc2ccccc2s1)OCC1CCCCC1	> 250	–	–	–	> 64	–	–
CCOC(=O)NC(=O)c1cc(F)sc1NC(=O)c1nc2ccccc2s1	–	–	–	–	–	0.046 (≈ 0.0181 µg/mL)	–
CC(=O)c1ccc(C(=O)Nc2sccc2C(=O)NC(=O)OCC2CC2)cc1	51.8 (≈ 20 µg/mL)	–	–	–	1.21	–	–
CCOC(=O)NC(=O)c1ccsc1NC(=O)c1ccc(C(C)=O)cc1	> 300	–	–	–	36.4	–	–
CCOC(=O)NC(=O)c1ccsc1NC(=O)c1nc2ccccc2s1	1.68 (≈ 0.631 µg/mL)	33.2 (≈ 12.5 µg/mL)	3	0.6	0.053	0.23 (≈ 0.0863 µg/mL)	–
CCOC(=O)NC(=O)c1ccsc1NC(=O)c1nc2cnccc2s1	–	–	–	–	–	0.089 (≈ 0.0335 µg/mL)	–
CCOC(=O)NC(=O)c1ccsc1NC(=O)c1ccc(C#N)cn1	> 300	–	–	–	41.2	–	–
O=C(NC(=O)c1ccsc1NC(=O)c1nc2ccccc2s1)OCC1CC1	0.77 (≈ 0.309 µg/mL)	12.4 (≈ 4.99 µg/mL)	3	1.1	0.01	–	Active
O=C(NC(=O)c1ccsc1NC(=O)c1nc2ccccc2s1)OCC1CCCC1	> 250	–	–	–	22.4	–	–
N#Cc1ccc(C(=O)Nc2sccc2C(=O)NC(=O)OCC2CC2)nc1	216 (≈ 79.8 µg/mL)	–	–	–	11.5	–	–
